These results are taken from publication PMC8329280 (Scientific Reports, 2021).

The test system of series [1] is human intestinal epithelial cell (caco-2). Conditions: cited from earlier work.
Series [2] concerns proteases produced by Staphylococcus aureus. The following applies: cited from earlier work. The source says: In particular, CgA is an acidic glyco-phospho-protein stored in secretory vesicles of numerous nervous, neuroendocrine and immune cells. […] In a ...
A further series relates to MSSA. Type of series: cell-based, Staphylococcus aureus. How it is done: (§1) The L- and D- forms of Ctl and also the corresponding L- and D-forms of the scramble peptides were tested by Atlangram (Nantes, France) against resistant Gram-negative bacteria (Escherichia coli, Klebsiella pneumoniae, Enterobacter cloacae, Enterobacter aerogenes, Serratia marcescens, Morganella morganii, Pseudomonas aeruginosa), MSSA, MRSA and yeast (C. albicans). The MICs were determined according to the CASFM/EUCAST 2018 (Comité de l’Antibiogramme de la Société Française de Microbiologie).

The test system of a further series is MRSA. Type of series: cell-based, Staphylococcus aureus. How it is done:
as §1

In the next series the test system is Enterobacter cloacae. The series is classed as cell-based. How it is done:
as §1

For the next series, the system named is Candida albicans. Type of series: cell-based. How it is done:
as §1

The test system of another series is Serratia marcescens. Type of series: cell-based. How it is done: as §1
The next series has as its system Pseudomonas aeruginosa. Type of series: cell-based. How it is done: as §1
For a further series, the system named is Morganella morganii. Type of series: cell-based. How it is done:
as §1

Series [3] relates to methicillin sensitive S. aureus (MSSA, strain 49775). The series is classed as cell-based, Staphylococcus aureus. How it is done:
(§2) Antibacterial assays were realized to the method previously reported[22],[25]. S. aureus strains were pre-cultured for 20 h in aerobic conditions at 37 °C in Mueller–Hinton Broth (MHB) medium (Becton–Dickinson Microbiology Company, Sparks, USA) (pH 7.4). Bacteria were suspended at absorbance of 0.001 at 620 nm in the MHB medium. Antibacterial activity was tested for 24 h incubation at 37 °C with shaking by measuring the inhibition of bacterial growth. Ten µl of final volumes (10–200 µg/mL) of synthetic peptides were incubated in microtitration plates with 90 µl of a mid-logarithmic phase culture of bacteria, with a starting absorbance of 0.001 at 620 nm. A mixture of Tetracycline (10 mg/L) and Cefotaxime (0.1 mg/L) were used as positive controls. Microbial growth was assessed by the increase of absorbance after 24 h incubation at 37 °C. The A620 nm value of control cultures growing in the absence of peptide and antibiotics was defined as 100% growth. A620 nm value with the antibiotics (Tetracycline and Cefotaxime) was taken as 100% inhibition. Absence of bacterial growth was verified by agar plate spreading. Each assay was performed in triplicates. Data were shown as mean + /− standard deviation of three independent experiments; p < 0.05.

The subject of series [4] is human gingival fibroblast (HGF-1). Conditions: cited from earlier work.
In another series the test system is S. aureus 25923 (MSSA). The series is classed as cell-based, Staphylococcus aureus. The following applies: 25923, 24 h. How it is done: as §2
The test system of another series is S. aureus V8. Type of series: cell-based, Staphylococcus aureus. Conditions: V8, 24 h. How it is done:
as §2

In series [5] the target is Endoprotease Glu-C from S. aureus V8 (E.C. 3.4.21.19) (Staphylococcus aureus, UniProt P0C1U8). Conditions: 50 mM Tris–HCl pH 8.2, 37 °C, enzyme added for 4 h then same amount for 18 h; RP-HPLC, optical density at 214 nm. How it is done:
Endoprotease Glu-C from S. aureus V8 (E.C. 3.4.21.19) was provided from Sigma Aldrich (Saint Louis, USA). Digestion of DOPA5T-Ctl (12.5 µg) by endoprotease Glu-C (Sigma-Aldrich Chemie Saint Quentin Fallavier, France) (3.5 µg) was obtained for 18 h at 37 °C in 50 mM Tris–HCl pH 8.2 or PBS[28]. Enzyme (1.75 µg) was added for a digestion of 4 h and then the same amount was added for 18 h. The enzymatic digestion was stopped by addition of 25 µL of 0.1% (vol/vol) TFA in milliQ water. The fragments resulting from enzymatic digestion were isolated with a RP-HPLC with a Dionex HPLC system on a Vydac 208 TP C8 column (3 × 250 mm), and identified by Maldi-tof mass spectrometry, as previously reported for the characterization of the synthetic peptides.

The test system of a further series is Citrobacter freundii. The series is classed as cell-based.
The subject of the next series is Enterobacter aerogenes. The series is classed as cell-based. How it is done: as §1
For the next series, the system named is Escherichia coli. The series is classed as cell-based. How it is done: as §1
The subject of a further series is Klebsiella pneumoniae. The series is classed as cell-based. How it is done: as §1

Non-standard residues stand in square brackets, D forms with d. Residues, ends and D or L forms follow the SMILES beside them. No end group written: not given here. Dopa = N[C@@H](Cc1ccc(O)c(O)c1)C(=O)O

Sequence of Endoprotease Glu-C from S. aureus V8 (E.C. 3.4.21.19) (P0C1U8 69-336): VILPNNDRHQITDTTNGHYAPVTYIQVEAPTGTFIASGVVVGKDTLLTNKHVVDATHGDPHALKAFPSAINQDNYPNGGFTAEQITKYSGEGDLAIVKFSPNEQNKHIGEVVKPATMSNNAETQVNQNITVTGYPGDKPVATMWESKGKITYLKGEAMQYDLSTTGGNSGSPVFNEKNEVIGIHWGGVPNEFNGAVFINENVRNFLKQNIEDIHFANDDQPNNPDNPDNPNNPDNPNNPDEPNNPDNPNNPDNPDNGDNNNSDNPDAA

Regarding RSMRLSFRARGYGFR [Ctl, Cateslytin], in series [1], the “toxicity for caco-2” value is “not toxic”. Also, the “degradation by the proteases produced by Staphylococcus aureus” value in series [2] is “resistant to degradation”. Moreover, the MIC is reported as over 128 µg/mL against MSSA; over 128 µg/mL against MRSA; over 128 µg/mL with Enterobacter cloacae; 512 µg/mL against Candida albicans; over 128 µg/mL in the series on Serratia marcescens; over 128 µg/mL with Pseudomonas aeruginosa. The molecule also gave a minimal inhibitory concentration (MIC) against Morganella morganii of over 128 µg/mL. Besides, the “MIC MSSA” value in series [3] (methicillin sensitive (, strain 49775, 20 h)) amounted to 93.0 µg/mL. For the same molecule, the “toxicity for HGF-1” value in [4] is given as “not toxic”.

Regarding `CSCC[C@H](NC(=O)[C@H](CO)NC(=O)[C@H](CCCNC(=N)N)NC(=O)[C@H](CCC(=O)O)NC(=O)CNC(=O)CNC(=O)[C@H](CCCNC(=N)N)NC(=O)[C@H](CC(C)C)NC(=O)[C@@H](NC(=O)[C@H](Cc1ccc(O)c(O)c1)NC(=O)[C@H](CCCCN)NC(=O)[C@H](Cc1ccc(O)c(O)c1)NC(=O)[C@H](CCCCN)NC(=O)[C@@H](N)Cc1ccc(O)c(O)c1)[C@@H](C)O)C(=O)N[C@@H](CCCNC(=N)N)C(=O)N[C@@H](CC(C)C)C(=O)N[C@@H](CO)C(=O)N[C@@H](Cc1ccccc1)C(=O)N[C@@H](CCCNC(=N)N)C(=O)N[C@@H](C)C(=O)N[C@@H](CCCNC(=N)N)C(=O)NCC(=O)N[C@@H](Cc1ccc(O)cc1)C(=O)NCC(=O)N[C@@H](Cc1ccccc1)C(=O)N[C@@H](CCCNC(=N)N)C(=O)O` [DOPA5T-Ctl] (H-[Dopa]K[Dopa]K[Dopa]TLRGGERSMRLSFRARGYGFR-OH), the half-maximal inhibitory concentration (IC50) in the series on S. aureus 25923 (MSSA) stood at 20 µM; with S. aureus V8, 65 µM; in series [3] (methicillin sensitive (, strain 49775, 24 h)), 45 µM. Further, the “Ctl and its oxidized form released after Glu-C digestion” value in [5] turned out to be 76%. Further, in series [5], the “proteolysis by Glu-C endoprotease” value is recorded as “full proteolysis”.

For “FMRLRYRSSAFGGRR [Control L, reference compound]”, the MIC with Citrobacter freundii was over 128 µg/mL; in the series on MSSA it was over 128 µg/mL; with MRSA it was over 128 µg/mL; with Enterobacter cloacae, over 128 µg/mL; in the series on Enterobacter aerogenes it was over 128 µg/mL; in the series on Candida albicans it was 512 µg/mL. The MIC in the series with Escherichia coli, against Serratia marcescens, against Klebsiella pneumoniae, against Pseudomonas aeruginosa and in the series with Morganella morganii was over 128 µg/mL in each case.
